Here are results for 23 molecules from patent US20140120087A1, “TRIAZOLOPYRIDINES” (BAYER INTELLECTUAL PROPERTY GMBH, priority 2011, published 2014).

Data set [1] addresses T1, Mps-1 kinase (Homo sapiens, UniProt P33981).
T1 sequence (P33981 1-857): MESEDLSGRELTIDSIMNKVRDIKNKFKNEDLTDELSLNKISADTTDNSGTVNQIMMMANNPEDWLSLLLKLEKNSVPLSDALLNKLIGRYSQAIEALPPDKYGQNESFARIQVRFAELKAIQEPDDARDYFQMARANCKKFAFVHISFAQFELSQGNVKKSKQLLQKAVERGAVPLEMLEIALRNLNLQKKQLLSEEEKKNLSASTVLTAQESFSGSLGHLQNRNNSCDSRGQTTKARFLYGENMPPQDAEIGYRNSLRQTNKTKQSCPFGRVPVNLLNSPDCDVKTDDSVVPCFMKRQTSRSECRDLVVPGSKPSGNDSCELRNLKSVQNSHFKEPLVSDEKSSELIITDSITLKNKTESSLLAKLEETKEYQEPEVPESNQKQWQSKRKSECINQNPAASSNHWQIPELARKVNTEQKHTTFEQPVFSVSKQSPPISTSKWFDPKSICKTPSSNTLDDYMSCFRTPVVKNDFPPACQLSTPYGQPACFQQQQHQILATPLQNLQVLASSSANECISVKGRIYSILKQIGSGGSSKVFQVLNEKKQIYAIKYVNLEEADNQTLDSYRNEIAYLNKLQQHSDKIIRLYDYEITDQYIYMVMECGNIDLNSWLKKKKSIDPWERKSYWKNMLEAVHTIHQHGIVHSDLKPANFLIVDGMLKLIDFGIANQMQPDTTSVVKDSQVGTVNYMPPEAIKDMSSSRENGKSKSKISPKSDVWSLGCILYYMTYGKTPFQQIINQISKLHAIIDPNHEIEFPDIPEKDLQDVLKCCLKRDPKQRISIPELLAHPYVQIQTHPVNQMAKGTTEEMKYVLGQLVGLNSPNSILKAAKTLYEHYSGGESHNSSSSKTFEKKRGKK
Description: Mps-1 kinase assay with 10 μM ATP (TR-FRET).

A short description of data set [2]: Hydrolytic stability assay at pH 2. It is filed as physicochemical. The following applies: buffer pH 2, 37° C. As to the method:
The hydrolytic stability assay investigates the stability of a compound in an aqueous buffer system. Standard solution stability assay is run in 0.05 M Phosphate buffer at pH 7.4 (pH of blood plasma) at 37° C. As compounds in the GI tract are exposed to a wide variety of pHs any relevant pH (as pH 2 to simulate the acidic condition of the GI tract in the following experiment) can be chosen. Compounds are incubated in relevant solution at 37° C. and analyzed by HPLC immediately after incubation and after 1, 2 and 24 hrs. Degradation rate (decay in %) is calculated by relating peak areas after 1, 2 and 24 hrs to the time zero injection.
Compound is available as 10 mM in DMSO (solution 1). 2.5 μL of solution 1 is dissolved in 1 mL acetonitrile leading to solution 2. Poorly soluble compounds may demand another dilution step of solution 2 (1:5 and 1:10 respectively) in Acetonitrile). Solution 2 is incubated at 37° C. in a tempered HPLC autosampler. 1 mL buffer pH 2 is transferred into an HPLC vial. 100 μL of solution 2 is added to the buffer pH 2 solution and mixed thoroughly. Immediately after mixing the combined solution is injected into the HPLC to give the time zero injection. Injections are repeated after 1, 2 and 24 hrs.
The degradation rate (decay in %) is calculated using HPLC software Millennium and Excel respectively.

In data set [3] the target is T1, Mps-1 kinase. The data set is described as follows: Mps-1 kinase assay with 2 mM ATP (TR-FRET).
Setting [4] is: comparison compounds specified in WO2011/063908.

`COc1cc(C(=O)NCC(C)(C)O)ccc1Nc1nc2ccc(-c3ccc(NC(=O)Cc4ccc(F)cc4)cc3)cn2n1` [Example 01.12, 4-{[6-(4-{[(4-fluorophenyl)acetyl]amino}phenyl)[1,2,4]triazolo[1,5-α]-pyridin-2-yl]amino}-N-(2-hydroxy-2-methylpropyl)-3-methoxybenzamide]: the half-inhibitory concentration (IC50) on Mps-1 kinase [1] and at Mps-1 kinase [3] was no more than 1 nM each time. Moreover, the “Hydrolysis at pH 2; Decay in % after 24 h” value (“Hydrolysis … in % after 24 h” below) in data set [2] (compounds of the invention) is recorded as less than 10%.

As to `Cc1cc(N(C)C)ccc1Nc1nc2ccc(-c3ccc(C(=O)NCc4ccc(F)cc4)cc3)cn2n1` [Example 02.24, 4-(2-{[4-(dimethylamino)-2-methylphenyl]amino}[1,2,4]triazolo[1,5-α]-pyridin-6-yl)-N-(4-fluorobenzyl)benzamide], the IC50 at Mps-1 kinase [1] was no more than 1 nM; against Mps-1 kinase [3] it was 5.9 nM. Also, the “Hydrolysis … in % after 24 h” value in data set [2] (compounds of the invention) is less than 10%.

With `COc1cc(C(=O)NC(C)(C)CO)ccc1Nc1nc2ccc(-c3ccc(C(=O)NCc4ccc(F)cc4)cc3)cn2n1` [Example 02.8, 4-[(6-{4-[(4-fluorobenzyl)carbamoyl]phenyl}[1,2,4]triazolo[1,5-α]pyridin-2-yl)amino]-N-(1-hydroxy-2-methylpropan-2-yl)-3-methoxybenzamide], the 50% inhibitory concentration (IC50) against Mps-1 kinase [1] was no more than 1 nM; against Mps-1 kinase [3], 1.5 nM. For the same molecule, in data set [2] (compounds of the invention), the “Hydrolysis … in % after 24 h” value is listed as less than 10%.

On to `CNCCN(C)C(=O)c1ccc(Nc2nc3ccc(-c4ccc(C(=O)NCc5ccc(F)cc5)cc4)cn3n2)c(OC)c1` [Example 02.11, 4-[(6-{4-[(4-fluorobenzyl)carbamoyl]phenyl}[1,2,4]triazolo[1,5-α]pyridin-2-yl)amino]-3-methoxy-N-methyl-N-[2-(methylamino)ethyl]benzamide], for which the IC50 on Mps-1 kinase [1] and at Mps-1 kinase [3] was no more than 1 nM in each case. In data set [2] (compounds of the invention), the “Hydrolysis … in % after 24 h” value was less than 10%.

`CCOc1cc(C(=O)NCC(C)(C)O)ccc1Nc1nc2ccc(-c3ccc(NC(=O)Cc4ccc(F)cc4)cc3)cn2n1` [Example 01.17, 3-ethoxy-4-{[6-(4-{[(4-fluorophenyl)acetyl]amino}phenyl)[1,2,4]triazolo-[1,5-α]pyridin-2-yl]amino}-N-(2-hydroxy-2-methylpropyl)benzamide]: the IC50 against Mps-1 kinase [1] and against Mps-1 kinase [3] was no more than 1 nM each time. Moreover, the “Hydrolysis … in % after 24 h” value in data set [2] (compounds of the invention) was less than 10%.

As to `Cc1ccc(C#N)c(Nc2nc3ccc(-c4ccc(NC(=O)Cc5ccccc5)cc4)cn3n2)c1` [Example 10, reference compound], on Mps-1 kinase [1], the IC50 worked out at 2.1 nM. The “Hydrolysis … in % after 24 h” value in data set [2] (setting [4]) was “≧70%”.

The molecule `N#Cc1ccccc1Nc1nc2ccc(-c3ccc(NC(=O)Cc4cccc(C(F)(F)F)c4)cc3)cn2n1` [Example 8, reference compound] registered a half-maximal inhibitory concentration (IC50) at Mps-1 kinase [1] of 1.4 nM. Further, the “Hydrolysis … in % after 24 h” value in data set [2] (setting [4]) was “≧70%”.

Turning to `N#Cc1ccccc1Nc1nc2ccc(-c3ccc(NC(=O)Cc4cccc(F)c4)cc3)cn2n1` [Example 7, reference compound], at Mps-1 kinase [1], the concentration for half-maximal inhibition (IC50) stood at 1.1 nM. Moreover, the “Hydrolysis … in % after 24 h” value in data set [2] (setting [4]) is recorded as “≧70%”.

Turning to `COc1cc(S(C)(=O)=O)ccc1Nc1nc2ccc(-c3ccc(NC(=O)Cc4ccc(F)cc4)cc3)cn2n1` [Example 01.15, 2-(4-fluorophenyl)-N-[4-(2-{[2-methoxy-4-(methylsulfonyl)phenyl]amino}-[1,2,4]triazolo[1,5-α]pyridin-6-yl)phenyl]acetamide], the “Hydrolysis … in % after 24 h” value in data set [2] (compounds of the invention) is reported as less than 10%.

Take `N#Cc1ccccc1Nc1nc2ccc(-c3ccc(NC(=O)Cc4ccc(F)cc4)cc3)cn2n1` [Example 1, reference compound]: the “Hydrolysis … in % after 24 h” value in data set [2] (setting [4]) is “≧90%”.

On to `CCNC(=O)c1ccc(Nc2nc3ccc(-c4ccc(C(=O)NCC5CC5)cc4)cn3n2)c(OCC)c1` [Example 06.1, 4-[(6-{4-[(cyclopropylmethyl)carbamoyl]phenyl}[1,2,4]triazolo[1,5-α]-pyridin-2-yl)amino]-3-ethoxy-N-ethylbenzamide], for which the half-inhibitory concentration (IC50) against Mps-1 kinase [1] is no more than 1 nM. Moreover, in data set [2] (compounds of the invention), the “Hydrolysis … in % after 24 h” value is less than 10%.

For the molecule `COc1cc(C(=O)NC(C)(C)CO)ccc1Nc1nc2ccc(-c3ccc(C(=O)NCc4ccc(F)cc4)c(Cl)c3)cn2n1` [Example 05.1, 2-chloro-N-(4-fluorobenzyl)-4-[2-({4-[(1-hydroxy-2-methylpropan-2-yl)-carbamoyl]-2-methoxyphenyl}amino)[1,2,4]triazolo[1,5-α]pyridin-6-yl]-benzamide], the half-inhibitory concentration (IC50) at Mps-1 kinase [1] is no more than 1 nM. Further, the “Hydrolysis … in % after 24 h” value in data set [2] (compounds of the invention) is recorded as less than 10%.

Regarding `N#Cc1ccccc1Nc1nc2ccc(-c3ccc(NC(=O)Cc4ccccc4F)cc3)cn2n1` [Example 3, reference compound], on Mps-1 kinase [1], the IC50 was no more than 1 nM. For the same molecule, the “Hydrolysis … in % after 24 h” value in data set [2] (setting [4]) is listed as “≧70%”.

`COc1cccc(CC(=O)Nc2ccc(-c3ccc4nc(Nc5ccccc5C#N)nn4c3)cc2)c1` [Example 5, reference compound] gave an IC50 against Mps-1 kinase [1] of no more than 1 nM. Further, the “Hydrolysis … in % after 24 h” value in data set [2] (setting [4]) was “≧70%”.

On Mps-1 kinase [1], `N#Cc1c(F)cccc1Nc1nc2ccc(-c3ccc(NC(=O)Cc4ccccc4)cc3)cn2n1` [Example 2, reference compound] yielded an IC50 of no more than 1 nM. Also, the “Hydrolysis … in % after 24 h” value in data set [2] (setting [4]) is listed as “≧20%”.

As to `N#Cc1ccccc1Nc1nc2ccc(-c3ccc(NC(=O)Cc4ccc(F)c(F)c4)cc3)cn2n1` [Example 4, reference compound], the 50% inhibitory concentration (IC50) against Mps-1 kinase [1] is no more than 1 nM. Besides, the “Hydrolysis … in % after 24 h” value in data set [2] (setting [4]) is reported as “≧70%”.

Consider `CCN(C)C(=O)c1ccc(Nc2nc3ccc(-c4ccc(NC(=O)Cc5ccc(F)cc5)cc4)cn3n2)c(OC)c1` [Example 12.06, N-ethyl-4-{[6-(4-{[(4-fluorophenyl)acetyl]amino}-phenyl)[1,2,4]triazolo[1,5-a]pyridin-2-yl]amino}-3-methoxy-N-methyl-benzamide], for which the IC50 against Mps-1 kinase [1] and on Mps-1 kinase [3] was no more than 1 nM each time.

As to `N#Cc1ccccc1Nc1nc2ccc(-c3ccc(NC(=O)Cc4ccccc4)cc3)cn2n1` [Example 6, reference compound], the “Hydrolysis … in % after 24 h” value in data set [2] (setting [4]) is listed as “≧90%”.

In the case of `Cc1cc(S(C)(=O)=O)ccc1Nc1nc2ccc(-c3ccc(C(=O)NCc4ccc(Cl)cc4)cc3)cn2n1` [Example 12.74, N-(4-chlorobenzyl)-4-(2-{[2-methyl-4-(methylsulfonyl)-phenyl]amino}[1,2,4]triazolo [1,5-a]pyridin-6-yl)-benzamide], the values for the half-maximal inhibitory concentration (IC50) against Mps-1 kinase [1] and on Mps-1 kinase [3] were no more than 1 nM and 16 nM, respectively.

On to `COc1cc(S(C)(=O)=O)ccc1Nc1nc2ccc(-c3ccc(C(=O)NCc4ccc(C)cc4)cc3)cn2n1` [Example 12.76, 4-(2-{[2-methoxy-4-(methyl-sulfonyl)phenyl]amino}-[1,2,4]triazolo[1,5-a]pyridin-6-yl)-N-(4-methyl-benzyl)benzamide], for which the IC50 against Mps-1 kinase [1] is no more than 1 nM; against Mps-1 kinase [3] it was 7.4 nM.

Consider `COc1cc(S(C)(=O)=O)ccc1Nc1nc2ccc(-c3ccc(C(=O)NCc4ccc(Cl)cc4)cc3)cn2n1` [Example 12.73, N-(4-chlorobenzyl)-4-(2-{[2-methoxy-4-(methylsulfonyl)-phenyl]amino}[1,2,4]triazolo [1,5-a]pyridin-6-yl)-benzamide], for which the values for the IC50 at Mps-1 kinase [1] and against Mps-1 kinase [3] were no more than 1 nM and 16 nM, respectively.

Take `Cc1cc(C(N)=O)ccc1Nc1nc2ccc(-c3ccc(C(=O)NCc4ccc(F)cc4)cc3)cn2n1` [Example 12.65, 4-[(6-{4-[(4-fluorobenzyl)-carbamoyl]phenyl}[1,2,4]triazolo [1,5-a]pyridin-2-yl)-amino]-3-methylbenzamide]: the half-maximal inhibitory concentration (IC50) against Mps-1 kinase [1] and on Mps-1 kinase [3] was no more than 1 nM in each case.

As to `Cc1cc(S(C)(=O)=O)ccc1Nc1nc2ccc(-c3ccc(C(=O)NCc4ccc(F)cc4)cc3)cn2n1` [Example 12.68, N-(4-fluorobenzyl)-4-(2-{[2-methyl-4-(methylsulfonyl)-phenyl]amino}[1,2,4]triazolo [1,5-a]pyridin-6-yl)-benzamide], the IC50 at Mps-1 kinase [1] was no more than 1 nM; on Mps-1 kinase [3], 1.9 nM.
